According to patent US20040002842A1, “Methods and systems for analyzing complex biological systems” (priority 2001, published 2004):

Key:
[1] = test system: Saccharomyces cerevisiae wild type strain BY4743; experiment: AF1 yeast gene expression analysis (microarray, KEGG pathway mapping); type: cell-based; details: for # Transcripts perturbed by treatment: 2×MIC, two hours; for Number of Pathways Affected by at Least One Gene, # Pathways: p < 0.05, KEGG mapping
Experimental: Saccharomyces cerevisiae wild type strain BY4743 was purchased from American Type Culture Center (ATCC, Manassas, Va.). The yeast strain was grown in YPD or SD media. H. […] The cultures started from fresh single colonies were grown in 1.0 ml YPD overnight at 30° C. […] The OD600 was adjusted to 1.0 with YPD media, then 2.0 ml of each was inoculated into three 250 ml flasks, each containing 50 ml of SD media. […] The cells were kept growing for another two hours, then collected by centrifugation at 4000 rpm for 5 minutes at 4° C. Pellets were washed once with ice-cold water, then were lyophilized overnight at 4° C. […] Tubes were vortexed for 30 seconds, then incubated for 10 minutes at room temperature (RT). […] Tubes were incubated for 10 minutes at RT. Samples were centrifuged for 20 minutes as before. Pellets were washed with 400 μl 70% ethanol and centrifuged for 10 minutes as before. The pellet was then dissolved in 100 μl nuclease-free water. RNA quality was determined using the Bioanalyzer 2100 and the RNA 6000 assay (Agilent Technologies, Palo Alto, Calif.) according to manufacturer's instructions. RNA concentrations were determined spectrophotometrically by measuring the absorption at 260 nm in an Ultrospec 2000 (Pharmacia Biotech, Piscataway, N.J.). […] Labeled cRNAs were evaluated using the RNA 6000 assay on the Agilent Bioanalyzer 2100. Labeled cRNA concentrations were determined spectrophotometrically by measuring the absorption at 260 nm in an Ultrospec 2000 (Pharmacia Biotech, Piscataway, N.J.). […] Each pair of samples to be hybridized were independently labeled and hybridized utilizing a fluor reversal for a total of two hybridizations per sample pair. The microarrays were scanned simultaneously in the Cy3 and Cy5 channels with Agilent's 48-slide, Dual Laser DNA Microarray Scanner (Agilent Technologies, Palo Alto, Calif.) at 10 μm resolution using default settings. Image Analysis Software (Version A.4.0.45, Agilent Technologies, Palo Alto, Calif.) was used for image analysis. Each feature was determined from an array's associated pattern file and a detection algorithm. Intensity values for each feature were determined after subtracting background derived from an average of negative control features. Features with unusual pixel intensity statistics (e.g., high non-uniformity, saturation in either channel, and the like) were excluded from downstream analyses. Data was loaded into the Rosetta RESOLVER database (Rosetta Inpharmatics Inc., Kirkland, Wash.) for storage and analysis. Data was evaluated after combining results from fluor reversal replicate hybridizations. The annotation of yeast ORFs was obtained from Proteome BIOKNOWLEDGE Library (Incyte Genomics, Palo Alto, Calif.). In AF1, two different technologies were utilized: gene expression analysis (for examination of mRNA expression) and metabolite analysis. […] As noted previously, existing metabolic databases may be helpful in practicing the methods and systems of the present invention, but many databases include limitations that make their use in data analysis and pathway mapping less than straightforward. […] This caveat to KEGG makes it difficult to pinpoint the correct pathway when attempting to link a gene to a specific pathway. The pathway score indicates how meaningful the mapping is, or how likely it is to be correctly indicative of the pathway involved in the perturbation under examination. The method provides a pathway score based on perturbation levels of genes and/or compounds and the information content of each gene and/or compound in the pathway, i.e., a pathway score indicates the extent to which other pathways are mapped to a gene/compound. For example, imagine that two genes are perturbed in a particular experiment.

[2] = test system: Saccharomyces cerevisiae wild type strain BY4743; experiment: AF1 yeast metabolite analysis by GC-MS and LC-MS; type: cell-based; details: for # Compounds perturbed by treatment: 2×MIC, two hours
[3] = test system: Saccharomyces cerevisiae wild type strain BY4743; experiment: AF1 combined gene expression and metabolite data (reactions, pathways, cluster analysis); type: cell-based
Source text: The data were then combined to determine the number of reactions showing an enzyme and at least one compound perturbed, and to determine the number of pathways having at least one enzyme and one perturbed compound perturbed. The results of the analysis are represented in Tables 16 and 17, and were difficult to interpret, illustrating that the ability to draw conclusions from compound mapping to pathways is limited when absent additional data. […] A coherent data set was created from data obtained from the four above-described drug compounds. The data were reduced by using principle components analysis and cluster analysis.

[4] = test system: Arabidopsis thaliana plants; experiment: SOA1 phenotypic analysis of herbicide-treated plants (incl. MIC/Tmic); type: in vivo; details: herbicide-treated plants
[5] = test system: Arabidopsis thaliana plants; experiment: SOA1 gene expression analysis (60mer microarray, 6200 genes) of herbicide-treated tissue; details: SOA1 profiles

Structure (SMILES): CC[C@@H]([C@H](C)O)n1ncn(-c2ccc(N3CCN(c4ccc(OC[C@@H]5CO[C@@](Cn6cncn6)(c6ccc(F)cc6F)C5)cc4)CC3)cc2)c1=O [Posaconazole]
- # Transcripts perturbed by treatment ([1]; P < 0.05): 690
- Number of Pathways Affected by at Least One Gene, # Pathways [1]: 69
- # Compounds perturbed by treatment ([2]; P < 0.05): 3
- # Compounds perturbed by treatment ([2]; P < 0.1): 4
- Fold Change: alanine ([2]; Platform GC): 1.035
- Fold Change: asparagine ([2]; Platform GC): 0.145
- Fold Change: aspartic acid ([2]; Platform GC): −0.071
- Fold Change: campesterol ([2]; Platform GC): 0
- Fold Change: desmosterol ([2]; Platform GC): 0
- Fold Change: disaccaride1 ([2]; Platform GC): 0.04733
- Fold Change: disaccaride2 ([2]; Platform GC): 0.313
- Fold Change: disaccaride3 ([2]; Platform GC): 0.3407
- Fold Change: ergosterol ([2]; Platform GC): 0.808
- Fold Change: fucosterol ([2]; Platform GC): 6.722
- Fold Change: glutamine ([2]; Platform GC): 0.6439
- Fold Change: glycanopyrose ([2]; Platform GC): 1.594
- Fold Change: glycerol ([2]; Platform GC): 0.1873
- Fold Change: glycine ([2]; Platform GC): 0.08267
- Fold Change: hexadecanoic acid ([2]; Platform GC): −0.01867
- Fold Change: iso citric acid ([2]; Platform GC): 0.4
- Fold Change: isoleucine ([2]; Platform GC): 0.1023
- Fold Change: lanosterol ([2]; Platform GC): 7.464
- Fold Change: leucine ([2]; Platform GC): 0.334
- Fold Change: lysine ([2]; Platform GC): 0.1586
- Fold Change: malic acid ([2]; Platform GC): 0.2942
- Fold Change: 2-ketobutyric acid ([2]; Platform nLC): −0.9992
- Fold Change: 2-ketoglutaric ([2]; Platform nLC): 11.33
- Fold Change: 3-indolylacetonitri ([2]; Platform nLC): −0.9998
- Fold Change: 4-methylcatechol ([2]; Platform nLC): 0
- Fold Change: 4aminobutyrate/dimg ([2]; Platform nLC): −0.008939
- Fold Change: 5hydroxyLtryptophan ([2]; Platform nLC): 0
- Fold Change: 6-benzylaminopurine ([2]; Platform nLC): 0
- Fold Change: DLaminoadipic acid ([2]; Platform nLC): −0.9935
- Fold Change: abscisic acid ([2]; Platform nLC): 0
- Fold Change: aconitic acid ([2]; Platform nLC): 1.874
- Fold Change: adenine ([2]; Platform nLC): 0
- Fold Change: adenosine ([2]; Platform nLC): 128.3
- Fold Change: alanine ([2]; Platform nLC): 0.1091
- Fold Change: allantoic acid ([2]; Platform nLC): 0.3321
- Fold Change: allantoin ([2]; Platform nLC): 5.97
- Fold Change: anthranilic acid ([2]; Platform nLC): 0
- Fold Change: arginine ([2]; Platform nLC): 0.1707
- Fold Change: argininosuccinate ([2]; Platform nLC): 318.3
- Fold Change: asparagine ([2]; Platform nLC): 0.006865
- Fold Change: aspartic ([2]; Platform nLC): 0.305
- Fold Change: benzoic acid ([2]; Platform nLC): 0
- Fold Change: biotin ([2]; Platform nLC): −0.9992
- Fold Change: caffeic acid ([2]; Platform nLC): −0.49
- Fold Change: catechol ([2]; Platform nLC): 0
- Fold Change: cinnamic acid ([2]; Platform nLC): 0
- Fold Change: citricanoic/itaconi ([2]; Platform nLC): 0
- Fold Change: citrulline ([2]; Platform nLC): 1160
- Fold Change: coumaric acid ([2]; Platform nLC): 0
- Fold Change: cytidine ([2]; Platform nLC): −0.9986
- Fold Change: cytosine ([2]; Platform nLC): 0
- Fold Change: decanoic acid ([2]; Platform nLC): 0.1263
- Fold Change: diaminopimelic acid ([2]; Platform nLC): 0
- Fold Change: dihydrofolic acid ([2]; Platform nLC): 0
- Fold Change: estrone ([2]; Platform nLC): 0
- Fold Change: farnesol ([2]; Platform nLC): 0
- Fold Change: folic acid ([2]; Platform nLC): 0
- Fold Change: fumaric/3m2oxobutan ([2]; Platform nLC): −0.9997
- Fold Change: gallic acid ([2]; Platform nLC): 0.4414
- Fold Change: gibberellic ([2]; Platform nLC): 0
- Fold Change: glucosamine6PO4 ([2]; Platform nLC): −0.9951
- Fold Change: glutamic/acetylseri ([2]; Platform nLC): 0.3222
- Fold Change: glutamine/lysine ([2]; Platform nLC): 0.09814
- Fold Change: guanine ([2]; Platform nLC): 0
- Fold Change: guanosine ([2]; Platform nLC): −0.993
- Fold Change: histidine ([2]; Platform nLC): 0
- Fold Change: homogentisic/uric ([2]; Platform nLC): 0
- Fold Change: hydrocortisone ([2]; Platform nLC): 0
- Fold Change: hypoxanthine ([2]; Platform nLC): 0.1751
- Fold Change: indole3pyruvic acid ([2]; Platform nLC): 0
- Fold Change: inostol/glucos/sorb ([2]; Platform nLC): −0.493
- Fold Change: isocitric/citric/qu ([2]; Platform nLC): 1.711
- Fold Change: jasmonic acid ([2]; Platform nLC): 0
- Fold Change: kinetin ([2]; Platform nLC): 0
- Fold Change: lactic acid ([2]; Platform nLC): 0.5987
- Fold Change: lauric acid ([2]; Platform nLC): 0.9833
- Fold Change: leucine/isoleucine/ ([2]; Platform nLC): 0.03158
- Fold Change: luteolin ([2]; Platform nLC): 0
- Fold Change: malic acid ([2]; Platform nLC): 0.3101
- Fold Change: malonic acid ([2]; Platform nLC): 0
- Fold Change: menthol* ([2]; Platform nLC): 0.08121
- Fold Change: methionine ([2]; Platform nLC): 0
- Fold Change: 4-aminobenzoic acid ([2]; Platform pLC): 0
- Fold Change: 4-methylcatechol ([2]; Platform pLC): 0
- Fold Change: 4ambutyrate/dimglyc ([2]; Platform pLC): 31.37
- Fold Change: 5hydroxyLtryptophan ([2]; Platform pLC): 0
- Fold Change: 6benzylaminopurine ([2]; Platform pLC): 0
- Fold Change: DL-aminoadipic acid ([2]; Platform pLC): 1.685
- Fold Change: abscisic acid ([2]; Platform pLC): 0
- Fold Change: adenine ([2]; Platform pLC): −0.0145
- Fold Change: adenosine ([2]; Platform pLC): 0
- Fold Change: alanine/sarcosine ([2]; Platform pLC): 0.1013
- Fold Change: allantoic acid ([2]; Platform pLC): 0
- Fold Change: anthranilic acid ([2]; Platform pLC): 0
- Fold Change: arginine ([2]; Platform pLC): 0.03383
- Fold Change: argininosuccinate ([2]; Platform pLC): 0
- Fold Change: asparagine ([2]; Platform pLC): 0.4302
- Fold Change: aspartic acid ([2]; Platform pLC): 0.3626
- Fold Change: biotin ([2]; Platform pLC): 0
- Fold Change: caffeine ([2]; Platform pLC): 0
- Fold Change: citric acid TME ([2]; Platform pLC): 0
- Fold Change: citrulline ([2]; Platform pLC): 0.1011
- Fold Change: cytidine ([2]; Platform pLC): 0
- Fold Change: cytosine ([2]; Platform pLC): 1135
- Fold Change: diaminopimelic acid ([2]; Platform pLC): 0
- Fold Change: dihydrofolic acid ([2]; Platform pLC): 0
- Fold Change: dipicolinic acid ([2]; Platform pLC): 0
- Fold Change: folic acid ([2]; Platform pLC): 0
- Fold Change: glucosamine ([2]; Platform pLC): 0
- Fold Change: glucosamine6PO4 ([2]; Platform pLC): 0
- Fold Change: glutamate ([2]; Platform pLC): 0.3769
- Fold Change: glutamine/lysine ([2]; Platform pLC): 0.303
- Fold Change: glutathione ([2]; Platform pLC): 0.0101
- Fold Change: guanosine ([2]; Platform pLC): 0.04655
- Fold Change: histidine ([2]; Platform pLC): 0
- Fold Change: hydrocortisone ([2]; Platform pLC): 0
- Fold Change: hypoxanthine ([2]; Platform pLC): 0.135
- Fold Change: itaconic acid dimes ([2]; Platform pLC): 0
- Fold Change: kinetin ([2]; Platform pLC): 0
- Fold Change: leucine/isoleucine/ ([2]; Platform pLC): 0.04937
- Fold Change: luteolin ([2]; Platform pLC): 0
- Fold Change: mannitol ([2]; Platform pLC): 0.3919
- Fold Change: methionine ([2]; Platform pLC): −0.3997
- Number of Reactions Having an Enzyme and at Least One Compound Perturbed, # Reactions [3]: 0

Structure (SMILES): C[C@@H]1[C@H](O)[C@@H](C)/C=C/C=C/C=C/C=C/C=C/C=C/C=C/[C@H](O[C@@H]2O[C@H](C)[C@@H](O)[C@H](N)[C@@H]2O)C[C@@H]2O[C@](O)(C[C@@H](O)C[C@@H](O)[C@H](O)CC[C@@H](O)C[C@@H](O)CC(=O)O[C@H]1C)C[C@H](O)[C@H]2C(=O)O [Amphoteracin B]
- # Transcripts perturbed by treatment ([1]; P < 0.05): 4363
- # Transcripts perturbed by treatment ([1]; P < 0.1): 4652
- Number of Pathways Affected by at Least One Gene, # Pathways [1]: 97
- # Compounds perturbed by treatment ([2]; P < 0.05): 16
- # Compounds perturbed by treatment ([2]; P < 0.1): 21
- Number of Reactions Having an Enzyme and at Least One Compound Perturbed, # Reactions [3]: 54

Structure (SMILES): CC(=O)N1CCN(c2ccc(OCC3COC(Cn4ccnc4)(c4ccc(Cl)cc4Cl)O3)cc2)CC1 (stereo not drawn) [Ketoconazole]
- Number of Pathways Affected by at Least One Gene, # Pathways [1]: 90
- # Compounds perturbed by treatment ([2]; P < 0.1): 15
- Number of Reactions Having an Enzyme and at Least One Compound Perturbed, # Reactions [3]: 21

Structure (SMILES): COC(=O)c1cc(Oc2ccc(Cl)cc2Cl)ccc1[N+](=O)[O-] [Bifenox]
- characteristic symptoms (morphological phenotype) [4]: Necrotic leaf flecks
- gene expression profile correlation to acifluorfen (r) [5]: 0.151

Structure (SMILES): CCc1cccc(C)c1N(C(=O)CCl)C(C)COC (stereo not drawn) [Metolachlor]
- gene expression profile correlation with bifenox (r) [5]: 0.499
- gene expression profile correlation with diquat (r) [5]: 0.569
